These results are taken from patent publication US20040171795A1, “Novel peptides” (priority 2000, published 2004).

A short description of series [1]: Evaluation of toxicity of the peptide, tail vein administration. In kind it is in vivo. Particulars: female BALB/c mouse, 5 mg/kg. As to the method: The peptide of the present invention was administered to a mouse from its tail vein to thereby evaluate its toxicity. The mouse used was a female BALB/c mouse of 5 week old, and the peptide was used at a dose of 5 mg/kg.

Series [2] is described as follows: Measurement of CD spectrum. Particulars: 5 mM SDS, 10 mM phosphate buffer pH 7, 50 mM NaCl, 35° C. In kind it is physicochemical. The procedure:
The peptide dissolved in 10 mM phosphate buffer (pH=7) containing 50 mM NaCl was evaluated for its CD spectrum in the presence and in the absence of 5 mM SDS by using a circular dichroism spectrophotometer (J-500A, manufactured by JASCO). The cell length was 1 mm. The measurement was conducted at 35° C. for 6 times in total. FIGS. 7 to 9 are respectively views showing mean residue ellipticity in CD spectroscopy of the peptide of SEQ ID NO:1, the peptide of SEQ ID NO:4 and the peptide of SEQ ID NO:16. As evident in FIGS. 7 to 9, the mean residue ellipticity obtained in the presence of SDS was the so called W curve and local minimums were found in the areas at the wavelength of 205 to 210 nm and 220 to 225 nm, and α-helix structure was thereby confirmed.

A short description of series [3]: Affinity by surface plasmon resonance (Biacore 2000), flow cell 2. To be noted: SPR, HPA chip, 0.1 mg/mL BSA; compared with flow cell 1. In kind it is binding. The procedure: (§1) The specific affinity of the peptide for phosphatidyl serine was evaluated by means of surface plasmon resonance (SPR) using Biacore 2000 (manufactured by Biacore). To be more specific, phosphatidyl choline was immobilized on flow cell 1, and 50% of phosphatidyl serine and 50% of phosphatidyl choline were immobilized on flow cell 2 of HPA chip (manufactured by Biacore), and ability of the peptide to bind to the phospholipid was evaluated in the presence of 0.1 mg/mL BSA to thereby evaluate the affinity.

In series [4] the test system is cell (Vero, T24 or A549 of Example 9; not given). Kind of series: Nucleic acid-introducing ability, luciferase-expressing plasmid (procedure of Example 9). It counts as cell-based. Particulars: procedure of Example 9, luciferase-expressing plasmid. From the text:
A cell line established from monkey kidney (Vero cell) and a human bladder cancer cell (T24 cell) purchased from American Type Culture Collection (ATCC) and human lung cancer cell (A549 cell) purchased from Dainippon Pharmaceutical were inoculated on a 24 well culture plate (manufactured by NALGEN NUNC) at 1×10^5 cells/well. Vero cell and A549 cell were cultivated in DMEM (manufactured by Life Technologies Oriental) supplemented with 10% fetal bovine serum (hereinafter referred to as FBS, manufactured by NICHIREI), and T24 cell was cultivated in McCoy's 5a (manufactured by Life Technologies Oriental) supplemented with 10% FBS in 5% CO2 atmosphere at 37° C. for 24 hours. After removing the medium, opti-MEM (manufactured by Life Technologies Oriental) prepared to have the concentration of the luciferase-expressing plasmid prepared in Example 7 of 1 μg/mL and the concentration of the peptide prepared in Example 1 of 1.25, 2.5, or 5 μM was added, and the cells were cultivated for 5 hours. Next, in the case of Vero cell and A549 cell, the culture medium was replaced with DMEM supplemented with 10% FBS, and in the case of T24 cell, the medium was replaced with McCoy's 5a supplemented with 10% FBS, and cultivation was continued in 5% CO2 atmosphere and at 37° C. for another 24 hours. The luciferase activity expressed in the cell was then measured by the method instructed in luciferase assay system (manufactured by Promega). To be more specific, the cells were washed with phosphate-buffered saline (hereinafter referred to as PBS, manufactured by SIGMA), and the cells were lyzed with Passive Lysis Buffer attached to the kit. 20 μL of this cell lysate and 100 μL of the Luciferase Assay Reagent II attached to the kit was added to a fluorescence-measuring plate (Microlite™ 1 plate, manufactured by Dynatech), and after mixing, fluorescence was measured for 1 second by using a multilabel counter (ARVO™ SY1420 MULTILABEL COUNTER, manufactured by Wallac Beltold.
Concentration of the protein in the cell lysate was measured by mixing 8 μL of the cell lysate and 200 μL of the protein assay solution (manufactured by Biorad) with 792 μL of ultrapure water in a disposable cuvette (UV fluorescent cuvette A204X, manufactured by Funakoshi), allowing the mixture to stand for 5 minutes at room temperature, and measuring the absorption at 595 nm with a spectrophotometer (DU640, manufactured by Beckman). Bovine serum albumin (BSA) was used for the standard protein. By using the thus obtained results, count per 1 second per 1 mg of protein of the cell lysate was calculated to thereby use the count as the luciferase activity, and the highest count in the three conditions of different peptide concentration was designated the gene-introducing ability of the peptide.
It is to be noted that the nucleic acid-introducing ability was classified as described below on the bases of the fluorescent count per 1 mg of protein per 1 second (cps/mg protein).

Series [5] can be described thus: Affinity by surface plasmon resonance (Biacore 2000), flow cell 1. It counts as binding. To be noted: SPR, HPA chip, 0.1 mg/mL BSA. As to the method: as §1

Where no end group is shown, it is not given here.

As for LARLLARLLARLLRALLRALLRAL [SEQ ID NO:27], the “toxicity after tail vein administration” value in series [1] is “died immediately after the administration”.
On to “SEQ ID NO:25: comparative peptide, same amino acid composition as SEQ ID NO:1 but an utterly random amino acid sequence (TIRYRPSHQIRLRAVLHLWIRYRPSHQIRLRAVLHWS; synthetic peptide using an automatic peptide synthesizer) [reference compound]”, for which the “α-helix structure in CD spectrum in the presence of SDS” value in series [2] is “no α-helix structure is found”. For the same substance, the “binding to flow cell 2 (50% phosphatidyl serine, 50% phosphatidyl choline)” value in series [3] is “no binding”. In addition, the “ability of introducing the nucleic acid into a cell” value in series [4] is “neither the nucleic acid-introducing ability”. Also, in series [5], the “binding to flow cell 1 (phosphatidyl choline)” value is “no binding”.
